SMILES | melting point [°C]
O=S1(=O)NCN(C2CC2)c2cccc(Br)c21 | 189 to 191
Cc1ccc(N(c2ccc(C)cc2)c2ccc(-c3ccc(-c4ccc(N(c5ccc(C)cc5)c5ccc(C)cc5)cc4)cc3)cc2)cc1 | 232 to 234
Cc1nc2cc(C3CCc4cncn43)ccc2[nH]1 (stereo unspecified) | 230
CC(=O)NNC(=S)Nc1cc(C)ccc1Cl | 145 to 157
OC(Cn1ccnc1)(Cn1cncn1)c1ccc(Cl)cc1Cl (stereo unspecified) | 169 to 170
CSc1c[nH]c2ncccc12 | 115 to 116
CC(=O)N(C)C1CCC(=O)c2ccccc21 (stereo unspecified) | 101 to 103
C#CCON=Cc1cc(Cl)ccc1OC(=O)NC | 97 to 100
C=C(CC1(CC(=C)c2ccc(C(=O)Nc3ccccc3N)cc2)C(=O)N(C)C(=O)N(C)C1=O)c1ccc(C(=O)Nc2ccccc2N)cc1 | 161 to 163
CC1(C(=O)O)Cc2ccccc2NC1=O (single isomer, unassigned; (+)) | 139 to 141
O=C1CCC(c2ccc(-n3cnc4c3CCCC4)cc2)=NN1 | 296 to 297
CCCC(CCC)C(=O)OC1N=C(c2ccccc2F)c2cc(Cl)ccc2NC1=O (stereo unspecified) | 147 to 149
COC(=O)[C@H]1[C@H](C(=O)OC)C1(Br)C=O (stereo partly specified) | 52
CC(=C=CC(=O)O)c1ccc(Cl)cc1 | 146 to 148
O=C(NC1CCNC1)C12CC3CC(CC(C3)C1)C2 (stereo unspecified) | 186 to 188
CC(O)(C=Cc1ccc(S(=O)(=O)N2CCCC2)cc1)C(F)(F)F (stereo unspecified) | 119 to 121
CC1NC(=O)c2ccccc2O1 (stereo unspecified) | 124 to 126
COc1ccc(C(=O)N2CCCC2=O)cc1 | 120
COC1CC2(C)C(CCC3C4CC=C(C(C)=O)C4(C)CC(=O)C32)CC1O (stereo unspecified) | 159 to 163
COC(=S)c1nc(Br)nc(C)c1Cl | 105 to 106
CC(C)(C)NC(=O)N1CCn2c(c(C(N)=O)c(Br)c2C2CC2)C1 | 204 to 208
O=CC=C(Cl)c1cccc([N+](=O)[O-])c1 | 83

SMILES | melting point [°C]
Cc1nc(Br)n(C)c1-c1nc(C2CC2)no1 | 81
CN1CC(CCCl)Oc2ncc(-c3ccccc3)cc2C1=S (stereo unspecified) | 156 to 158
CN1Cc2c(C#N)ncn2-c2cccc(Br)c2C1=O | 226 to 228
O=c1c2cc(Cl)ccc2nc(C(S)c2ncnc3[nH]cnc23)n1-c1ccccc1Cl (stereo unspecified) | 237 to 238
Cc1nccn1-c1cc2[nH]c(=O)c(=O)n(O)c2cc1C(F)(F)F | > 300
CC(=O)N(c1ccc(C)c(C)c1)[C@H](C)C(=O)O | 156 to 159
Cc1ccc(N)c(C(=O)CS(C)=O)c1 (stereo unspecified) | 145 to 147
CCCCNC(=S)N1CCc2[nH]cnc2C1 | 130
Cn1c(Cl)c(Cl)c(C#N)c1Cl | 113 to 114
CC(C)CCCC(C)C1CCC2C3CC=C4CC(NCCCNC(=O)CCCCCNc5ccc([N+](=O)[O-])cc5[N+](=O)[O-])CCC4(C)C3CCC12C (stereo unspecified) | 165 to 166
CC(C)S(=O)(=O)c1snc(OC[Si](C)(C)C)c1C#N | 98 to 99
Cc1cccc(Cc2c[nH]cn2)c1 | 127 to 130
CSC(=S)NN=Cc1c[nH]cn1 | 259 to 261
CCCCCCCCCCCCCCCCCCOc1ccccc1CC(=O)CO | 59 to 60
Cc1oc(C)c2c1C(=O)c1c(O)ccc(O)c1C2=O | 255 to 256
CC1(C)OC(=O)Nc2ccc(Br)cc21 | 199 to 200
Brc1ccc(SC23CC4CC(CC(C4)C2)C3)cc1 | 121 to 122
O=CCC1Cc2cc(Cl)c(Cl)cc2C1=O (racemic) | 93 to 96
COc1nc(N)nc(OCC(F)(F)F)n1 | 78 to 80
CCOC(=O)c1cc2nc(C)nc-2[nH]c1C(=O)OCC | 164 to 165
CCCCCC(=O)ONC(=N)c1ccc(NC(=O)CCCC(=O)Nc2ccc(C(=N)NOC(=O)CCCCC)cc2)cc1 | 182 to 184

Further lines, results first:

melting point [°C] | SMILES
154 to 155 | CC(=O)C1=C(C)N=C(c2ccccc2)NC1c1cccc([N+](=O)[O-])c1 (stereo unspecified)
192 to 194 | COc1ccc(C#N)c(C(=O)Cl)c1
205 | CCCC1=NN(c2ccc(S(=O)(=O)O)cc2)C(=O)C1=CNc1ccccc1CC
151 to 152 | O=Cc1cccc(-c2cc(-c3ccc(C(F)(F)F)cc3)no2)c1
97 to 100 | CC12CCC3c4ccc(OCc5ccccc5)cc4CCC3C1CCC2O (stereo unspecified)
159 to 161 | COC1C(OC(=O)c2ccc(N)cc2)C=C(C)C(=O)CC1(C)C (stereo unspecified)
258 | CC(=O)OCC(=O)C1(OC(=O)c2ccccc2)CCC2C3CC(C)C4=CC(=O)C=CC4(C)C3C(O)CC21C (stereo unspecified)
206 to 210 | O=C(C=Cc1cc(OC(=O)c2ccccc2)c(OC(=O)c2ccccc2)c([N+](=O)[O-])c1)c1ccccc1
225 | COc1ccc(N2CCN(c3ccc(NC(=O)NCC(OC)OC)cc3)CC2)cc1
85 to 88 | CCCc1cc(F)c2oc(Cc3ccc(OC)cc3)c(C)c2c1OC(C)=O
129 to 130 | COc1ccc(NC(C)=O)cc1OC(F)F
188 | CNC(=S)NS(=O)(=O)c1cc(CCNC(=O)/C=C/c2ccccn2)ccc1OC
106 to 107 | COc1ccc(NC(=O)CCCCCC(C)=O)cc1
145 to 150 | COC(=O)c1nc(-c2ccco2)cc(N)c1Cl
100 to 102 | COCCOc1cc(N(C)S(=O)(=O)c2ccccn2)c2[nH]c(C3=NCC(CC(N)=O)S3)cc2c1 (stereo unspecified)
140 | Cc1ccc(CC(C(=O)NC(Cc2ccc(C#N)cc2)C(=O)N(C)C)S(=O)(=O)Nc2cccc3ccccc23)c(C)c1 (stereo unspecified)
> 260 | CCOC(=O)c1cnc(O)nc1-c1ccccc1
319 to 321 | O=C(CCn1cnc2c(=O)[nH]cnc21)Nc1ccc(C(=O)O)cc1
167 to 169 | COCC(=O)NNC(=O)N1Cc2ccccc2Oc2ccc(Cl)cc21
69 to 72 | COc1ccc(C(=O)c2c(N(C)C)sc3cc(OCc4ccccc4)ccc23)cc1OC

melting point [°C] | SMILES
184 to 186 | COc1nc2cc(Cl)c(Cl)c([N+](=O)[O-])c2nc1OC
130 | COc1ccc(C2=N[C@H](c3ccccc3)[C@@H](OC(=O)Nc3ccc(Cl)c(Cl)c3)CO2)cc1 (racemic)
48 to 50 | CC(C)=Cc1c(C)nc(C)c(CO)c1-c1ccccc1
158 to 159 | O=C(Nc1ccc(-n2nc(C(F)(F)F)cc2C(F)(F)F)cc1)c1cc(F)c(F)c(F)c1
261 to 262 | CC1(C)CCC(C)(C)c2cc3c(cc21)CCc1c(-c2ccc(C(=O)O)cc2)csc1-3
110 to 112 | CC1(C)CCc2ccc(OCCCCN3CCN(c4cccc(Cl)c4Cl)CC3)cc2NC1=O
121 to 124 | N#CN1Cc2ccccc2-c2ccccc2C1
90 | COc1ccc(C(=O)c2cc(F)cc(F)c2)cc1
87 | O=c1[nH]nc(-c2c(Cl)ccc3cc(Cl)cnc23)o1
95 to 97 | O=C1CCCc2cc(OCc3ccccc3)ccc21
237 to 239 | COc1cc2c3c(cccc3c1CNC(C)=O)C(=O)N(O)C2=O
212 to 215 | O=C(Nc1ccc(C(=O)N2Cc3ccccc3Cc3ccccc32)cc1)c1ccc(Cl)cc1Cl
207 to 209 | COc1ccc(CN(Cc2ccc(OC)cc2)c2nc(-c3ccccc3)c(-c3ccc(=O)n(C(C)C)n3)nc2C#N)cc1
259 to 260 | COC(=O)c1ccc2c(Cl)c(C(=O)Cl)sc2c1
117 to 119 | COC(=O)N[C@@H]1Cc2ccccc2N(OC)C1=O
278 to 280 | Cc1[nH]c(C#N)c(C)c1-c1nc2ccc(Oc3ccccc3)cc2[nH]1
97 to 99 | BrCCCCCCCOc1nc(-c2ccccc2)c(-c2ccccc2)n1-c1ccccc1
41 to 42 | CSc1nc(N)n(-c2ccccc2Oc2ccc(C)cc2O)n1
56 to 57 | CCOC(=O)COc1ccc(CSCC(=O)OCC)cc1NC(=O)c1ccc(OCCCCc2ccccc2)cc1
45 to 48 | CCOC(=O)N(c1cccc(C(F)(F)F)c1)c1ccccc1[N+](=O)[O-]

melting point [°C] | SMILES
180 to 190 | O=C1C(=O)N(c2ccc(F)cc2)c2ccc(F)cc21
229 to 231 | O=[N+]([O-])c1ccc(NC=C(S(=O)(=O)c2ccccc2)S(=O)(=O)c2ccccc2)nc1
144 to 145 | C=CC(c1ccccc1)c1c(C)c(NC=O)c(C)c(C)c1O (stereo unspecified)
53 to 55 | O=C(O)CCCOc1cccc(OCCC(c2ccccc2)(c2ccccc2)c2ccccc2)c1
215 to 220 | NC(=O)c1nc(-c2ccc(=O)[nH]c2)c(-c2ccccc2)nc1N
75 to 77 | COC(C)(C)C(C#N)=NOCc1coc(-c2ccc(F)cc2)n1
177 to 178 | O=CC(=Cc1ccccc1Cl)C(C=O)=Cc1ccccc1Cl
193 to 194 | COc1ccc(C(=O)Nc2ccc(F)cc2)cc1Nc1ccc(F)cc1
73 to 76 | CCCCOc1ccc(S(=O)(=O)N2CCC(N(Cc3ccccc3)CC(O)COc3cccc4[nH]c5ccccc5c34)C2)cc1 (stereo unspecified)
201 to 202 | NC(=O)N1C(=O)C(=C(OC(=O)c2cccnc2)c2cccs2)c2cc(F)c(Cl)cc21
174 | O=C(c1ccc2c(=O)nc(-c3ccccn3)sc2c1)N1CCCC1
203 to 205 | CN1CC(c2cc(CCc3ccccc3)cnn2)=C(O)C1=O
152 to 154 | COc1cc(CC(=O)Nc2ccc(C(C)CC(=O)O)cc2)ccc1NC(=O)N1CCc2ccccc21 (stereo unspecified)
141 to 142 | COc1ccc(C(=O)c2cc(C(C)(C)C)c(O)c(C(C)(C)C)c2)cc1
125 to 140 | N=C(NCc1ccccn1)NN=Cc1c(Cl)cccc1Cl
157 to 158 | O=C1N(CCCO)c2ccccc2C12COc1cc3c(cc12)OCCO3 (stereo unspecified)
161 to 163 | CCOC(=O)c1cc(C)n(-c2cccc(C(=O)O)c2)c1-c1ccccc1
133 to 135 | Cc1cc(NC(=O)c2cnoc2C2CC2)ccc1Br
